For series [1], the system named is rat mesenchymal stem cells. Put plainly: Proliferation of mesenchymal stem cells seeded on PLAGA scaffolds, PicoGreen dsDNA assay. Format: cell-based. The settings on record: each time point, day 7 to day 21. As for the experimental part: FIG. 8. Effect of 6-Bnz-cAMP on the proliferation of rat mesenchymal stem cells seeded on PLAGA scaffolds. Cell proliferation was assessed by PicoGreen dsDNA assay.
Evaluation of the in vitro cellular behaviors of rabbit MSC on the 6-Bnz-cAMP loaded PLAGA microsphere based scaffold: For in vitro studies, cells are plated onto the 6-Bnz-cAMP loaded and unloaded control scaffolds. Cell adhesion is determined at 1, 3, 6 and 24 hours. Cell proliferation levels are determined at Day 3, 7, and 14 (FIG. 8). Cell differentiation and mineralization are determined at Day 7, 14, 21, and 28. At the pre-determined times, scaffolds will be removed from the medium and unattached cells are removed by washing with PBS 4 times. The in vitro assays are performed on the attached cells according to the procedures described above in Example 3.

Series [2] relates to MC3T3-E1 cells. Put plainly: Matrix mineralization, quantitative calcium assay. In kind it is cell-based. Particulars: 100 μM in mineralization medium vs mineralization medium alone; day 21. As for the experimental part:
FIG. 6. 6-Bnz-cAMP promotes osteoblastic mineralization by day 21. After 20 days of culture of osteoblast-like MC3T3-E1 cells in mineralization medium with or without 6-Bnz-cAMP, quantitative calcium levels were determined. […] To facilitate the comparison of different experimental settings, the level of calcium measurement of the “Control” cells cultured in the regular growth medium was set to one relative unit.
MC3T3-E1 cells were grown in mineralization media (The minimal media described in Example 1 with, 1% of antibiotic (100 U/ml penicillin G and […] streptomycin), 3 mM β-glycerolphosphate, and 10 μg/ml ascorbic acid). 6-Bnz-cAMP was added to the culture medium to a final concentration of 100 μM for experiments; mineralization media only was used for positive controls. For the qualitative determination of calcified matrix mineralization, at day 21, media were removed and cells were rinsed with calcium-free PBS for 3 times. The precipitated calcium of mineralized matrix was dissolved overnight in 0.6N hydrochloric acid at 4° C. The extracted calcium was then measured with a calcium assay kit (Calcium Liquicolor, Stanbio Laboratory, Boerne, Tex.) according to the manufacturer's instructions. The absorbance values were normalized to cellular DNA.

The subject of another series is Runx2. Put plainly: Runx2 expression by SDS-PAGE and Western blotting. In kind it is cell-based. The settings on record: day 21. As for the experimental part:
FIG. 4. […] It is thought that Runx2 serves as a gatekeeper to promote osteogenesis, thus it is one of the most important marker for osteogenesis. In the control panel, consistent with the reported data in literature, Runx2 was detected in the presence of osteogenic medium but remain undetectable level without the osteogenic medium. […] The blot of tubulin serves as loading control for each sample loading.
Differentiation: Osteogenic protein markers were analyzed SDS-PAGE and Western Blotting. Protein samples were resolved by SDS-PAGE on precast 12.5% […] gels (Bio-Rad, Hercules, Calif.) and transferred electrophoretically onto polyvinylidene difluoride membranes according to the manufacturer's instructions (Bio-Rad, Hercules, Calif.). Membranes were blocked with skim milk and then probed with respective antibodies. […]
MC3T3E1 cells expressed classic markers for the osteoblastic phenotype in the presence of 6-Bnz-cAMP in the absence of osteogenic medium in samples collected at day 21. The level of Runx2, a bone-specific transcription factor which increases bone formation through the stimulation of bone-marker gene transcription in osteoblasts, was detected by immunoblotting (FIG. 4). In the control panel, Runx2 was detected in the presence of osteogenic medium but remain undetectable level without the osteogenic medium. […]
In general terms: In western blotting, separated proteins are transferred to a membrane and probed.

The conditions of series [3]: water and a variety of pharmaceutically useful buffers and solvents; cited from earlier work.
In series [4] the test system is MC3T3-E1 cells. Put plainly: Trypan blue viability assay. Format: cell-based. The settings on record: 100 micromolar, days 7, 14 and 21. The protocol:
FIG. 7. MC3T3-E1 cell viability of cells treated with 6-Bnz-cAMP compared to untreated cells. Cell viability was measured by trypan blue viability stain.
Viability: Cell viability is determined using a trypan blue viability assay. For trypan blue viability assay method, at day 7, 14, and 21, cells were collected by trypsinization and stained with trypan blue dye (MP Biochemicals LLC, Solon, Ohio). The cells were then numbered in a hemacytometer (Hausser Scientific, Horsham, Pa.) under a light microscopy (Olympus Corporation, Tokyo, Japan). Cell stained blue was scored a dead cell, while unstained cell was scored a live cell. The results are presented in % of viability.
MC3T3-E1 cells were grown in mineralization media. 6-Bnz-cAMP was added to the culture medium to a final concentration of 100 μM for experiments; mineralization media only was used for positive controls. Osteoblast-associated markers were quantitated at days 7 and 14. Markers include increased alkaline phosphatas (ALP) activity (FIG. 5) and calcium precipitation in MC3T3-E1 cells (FIG. 6). 6-Bnz-cAMP toxicity was assessed at days 7, 14, and 21 in cells treated with 100 micromolar 6-Bnz-cAMP compared to untreated cells. Trypan blue staining was used to visualize cells (FIG. 7).

For another series, the system named is MC3T3E1 cells. Put plainly: Cell proliferation, PicoGreen dsDNA assay. The settings on record: 100 μM in regular growth medium. In kind it is cell-based. As for the experimental part: FIG. 3. 6-Bnz-cAMP promotes cell growth in the earliest day of cell culture (Day 1) and maintains the cell proliferation rate at Day 7 and Day 14. Error bars represent SD.
MC3T3E1 subtype 4 cell line was purchased from the […] (ATCC). The cells were grown to confluence, then seeded onto PLAGA discs at a density of 50,000 cells/scaffold. The cells were cultured on the discs in vitro in a 37° C. and 5% CO2 environment, using MEM alpha cell culture medium +10% Fetal Bovine Serum as a nutrient source. At specific time points, cultured cells were collected for various assays i.e., cell adhesion assays, cell proliferation assays, and cell differentiation studies.
Proliferation: Cell proliferation was tested using a PicoGreen dsDNA assay kit (Molecular Probes, Eugene, Oreg.) The procedure of the PicoGreen dsDNA assay was performed according to the manufacturer's instructions. Briefly, 5×10^4 cells ml^−1 were seeded in a well of a tissue culture plate. 100 μM of 6-Bnz-cAMP was added to the regular growth medium during cell seeding. The regular growth medium and 6-Bnz-cAMP (100 μM) were replaced every 3 to 4 days.

For the next series, the system named is phophodiesterase. The settings on record: cited from earlier work.

Structures are written as SMILES.

Results on one molecule are retold here after US20110217337A1, “BIOACTIVE AGENT FOR BONE TISSUE ENGINEERING” (UNIVERSITY OF CONNECTICUT, priority 2010, published 2011).

For the molecule `O=C(Nc1ncnc2c1ncn2C1O[C@@H]2COP(=O)([O-])O[C@H]2[C@H]1O)c1ccccc1.[Na+]` (stereo partly drawn) [6-Bnz-cAMP, N^6-Benzoyladenosine-3′,5′-cyclic monophosphate], the “cell proliferation vs untreated control” value in series [1] was “No significant differences”. In the series on MC3T3-E1 cells [2], the calcium deposition entry is reported as “further enhanced calcium deposition”. Also, the “expression of Runx2” value is on record as “induces the expression of Runx2” in the series with Runx2 (100 μM, absence of osteogenic medium) and “further enhanced the expression of Runx2” in the series with Runx2 (osteogenic medium together with 6-Bnz-cAMP, vs 6-Bnz-cAMP alone). The solubility result in series [3] is reported as “soluble in water”. In addition, the “cell viability vs untreated cells” value in the series with MC3T3-E1 cells [4] is on record as “No significant differences”. In addition, the proliferation rate result in the series with MC3T3E1 cells (Days 7, 14 and 21) is given as “maintained”. The cell growth entry in the series on MC3T3E1 cells (first day of culturing (Day 1)) is “promote cell growth”. Further, the hydrolysis by phophodiesterase entry in the series on phophodiesterase is “resistant to hydrolysis”.
